According to patent US12668599B2, “Heterobifunctional compounds and methods of treating disease” (Halda Therapeutics OpCo, Inc., priority 2023, dated 2026):

Experiments:
[1] = system: T-Rex 293 cell line SC3 cells lacking increased expression of androgen receptor protein; assay: Cellular growth inhibition, T-Rex 293 SC3 cells without doxycycline (CellTiter-Glo 2.0, 72 hours); format: cell-based; settings: 72 h, T-Rex 293 SC3 cells not exposed to doxycycline (no increased androgen receptor expression)
[2] = target: T1, androgen receptor and BRD4 protein (Homo sapiens, UniProt O60885+P10275); assay: Tumor TR-FRET trimer assay on tumors of the PK/PD Castrate VCaP model; format: in vivo, CB17.SCID mice; settings: PK/PD Castrate VCaP Tumor Xenograft Model
T1 construct: Tumors obtained from the Castrate VCaP Model were lysed; from tissue; host or cells: VCaP tumour xenografts grown in castrated CB17.SCID mice
Description: 5M VCaP cells were subcutaneously implanted into CB17.SCID mice in 50% Matrigel (Corning). Mice were castrated under anesthesia once tumor volumes reached 100 mm^3. Tumors were then allowed to reach an average of approximately 150 mm^3 before randomization into efficacy arms. Tumors were measured twice weekly for Tumor Growth Inhibition (TGI) calculation. For PK/PD analysis, tumors were allowed to reach an average of 400 mm^3, before dosing the mice with test compound by oral gavage (n=5) for seven days. Mice were sacrificed 24 hours following the final dose, and tumors were harvested for downstream analysis. Plasma samples were collected from all dosed mice 2 hours following the final dose to determine test compound exposure by LC-MS/MS. […] the United States Food and Drug Administration for treatment of prostate cancer ([…]).
Tumors obtained from the Castrate VCaP Model were lysed in Cell Signaling Technology lysis buffer supplemented with protease/phosphatase inhibitors and nuclease. Each tumor was lysed in 10 μL of lysis buffer per mg of tumor and placed in a TissueLyser for 4 minutes at 20 Hz. Each sample was spun down at 16000×g for 10 minutes, the supernatant was removed, and a BCA assay was run to quantify the total protein concentration in each sample. In a white opaque 384 well plate each sample was diluted in supplemented CST lysis buffer to 48 and 24 μg of protein in a total volume of 16 μL. 4 μL of a 1:1 mixture of anti-androgen receptor and anti-BRD4 antibodies with donor and acceptor fluorophores were mixed into each well containing tumor samples. The plate was spun down at 300×g for one minute, placed on a plate shaker at 400 RPM for 10 minutes, spun down at 300×g for one minute, then sealed with a plate seal and stored overnight. Approximately 16 hours after adding antibodies, the plate was read on an Envision plate reader. The ratiometric value of each well was calculated by dividing the acceptor signal by the donor signal and multiplying by 10,000.

[3] = system: T-Rex 293 cell line SC3 cells having increased expression of androgen receptor protein due to exposure to doxycycline; assay: Cellular growth inhibition, T-Rex 293 SC3 cells with doxycycline-induced androgen receptor (CellTiter-Glo 2.0, 72 hours); format: cell-based

T1 sequence (P10275 whole entry, other chains not shown): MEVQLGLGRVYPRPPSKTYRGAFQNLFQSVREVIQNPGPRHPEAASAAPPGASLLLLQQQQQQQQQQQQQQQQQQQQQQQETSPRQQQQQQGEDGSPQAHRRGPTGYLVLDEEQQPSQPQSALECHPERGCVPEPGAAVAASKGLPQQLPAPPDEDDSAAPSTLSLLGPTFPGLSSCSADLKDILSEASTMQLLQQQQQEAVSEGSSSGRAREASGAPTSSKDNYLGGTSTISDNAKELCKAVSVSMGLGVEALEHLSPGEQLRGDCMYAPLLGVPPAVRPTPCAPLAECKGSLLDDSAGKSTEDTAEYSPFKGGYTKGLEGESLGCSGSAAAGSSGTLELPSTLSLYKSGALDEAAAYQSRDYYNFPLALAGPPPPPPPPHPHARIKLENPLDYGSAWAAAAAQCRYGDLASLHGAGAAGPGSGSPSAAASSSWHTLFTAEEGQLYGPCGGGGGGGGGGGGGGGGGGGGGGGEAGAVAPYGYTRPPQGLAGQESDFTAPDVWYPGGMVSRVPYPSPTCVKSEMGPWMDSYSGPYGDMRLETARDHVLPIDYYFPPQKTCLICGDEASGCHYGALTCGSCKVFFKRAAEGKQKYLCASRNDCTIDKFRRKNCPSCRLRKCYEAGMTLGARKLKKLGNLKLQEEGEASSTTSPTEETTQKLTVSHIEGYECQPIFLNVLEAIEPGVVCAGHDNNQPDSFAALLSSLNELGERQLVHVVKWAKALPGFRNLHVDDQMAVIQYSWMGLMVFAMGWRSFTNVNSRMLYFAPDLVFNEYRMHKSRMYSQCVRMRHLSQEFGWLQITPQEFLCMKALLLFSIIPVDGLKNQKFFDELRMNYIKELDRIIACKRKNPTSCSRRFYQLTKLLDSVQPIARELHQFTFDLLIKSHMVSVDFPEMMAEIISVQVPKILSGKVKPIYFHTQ

SMILES: COc1cc(O[C@H]2C(C)(C)[C@H](NC(=O)c3cnc(N4CCC5(CC4)CC(Oc4ccc(C6=N[C@@H](Cc7ncco7)c7nnc(C)n7-c7sc(C)c(C)c76)cc4)C5)nc3)C2(C)C)ccc1C#N [II-5, N-[(1r,3r)-3-(4-cyano-3-methoxy-phenoxy)-2,2,4,4-tetramethyl-cyclobutyl]-2-[2-[4-[(9S)-4,5,13-trimethyl-9-(oxazol-2-ylmethyl)-3-thia-1,8,11,12-tetrazatricyclo[8.3.0.0^2,6]trideca-2 (6),4,7,10,12-pentaen-7-yl]phenoxy]-7-azaspiro[3.5]nonan-7-yl]pyrimidine-5-carboxamide]
- GI50 [1]: < 500 nM
- ternary complex formation between compound, androgen receptor, and BRD4 protein in tumors ([2]; oral gavage for seven days, varying doses, FIG. 4): observed
- ternary complex formation between compound, androgen receptor, and BRD4 protein in tumors ([2]; Compound II-5 and Compound B at the same dose and dosing frequency, FIG. 20): observed
- Ratio of GI50's ([3]; GI50 of the top compound in the pair divided by GI50 of the lower compound, T-Rex 293 SC3 cells with doxycycline-induced androgen receptor): 1
- GI50 ([3]; T-Rex 293 SC3 cells with 10 ng/ml doxycycline (increased androgen receptor expression), 72 hours, CellTiter-Glo 2.0): < 500 nM
